# Results from patent US20240262832A1, “SMALL MOLECULE MODULATORS OF GLUCOCEREBROSIDASE ACTIVITY AND USES THEREOF” (Vanqua Bio, Inc., priority 2021, published 2024).
# Biological target: T1, GCase (Homo sapiens, UniProt P04062)
# T1 construct: endogenous in cells; host or cells: HeLa cells
# T1 sequence (P04062 40-536): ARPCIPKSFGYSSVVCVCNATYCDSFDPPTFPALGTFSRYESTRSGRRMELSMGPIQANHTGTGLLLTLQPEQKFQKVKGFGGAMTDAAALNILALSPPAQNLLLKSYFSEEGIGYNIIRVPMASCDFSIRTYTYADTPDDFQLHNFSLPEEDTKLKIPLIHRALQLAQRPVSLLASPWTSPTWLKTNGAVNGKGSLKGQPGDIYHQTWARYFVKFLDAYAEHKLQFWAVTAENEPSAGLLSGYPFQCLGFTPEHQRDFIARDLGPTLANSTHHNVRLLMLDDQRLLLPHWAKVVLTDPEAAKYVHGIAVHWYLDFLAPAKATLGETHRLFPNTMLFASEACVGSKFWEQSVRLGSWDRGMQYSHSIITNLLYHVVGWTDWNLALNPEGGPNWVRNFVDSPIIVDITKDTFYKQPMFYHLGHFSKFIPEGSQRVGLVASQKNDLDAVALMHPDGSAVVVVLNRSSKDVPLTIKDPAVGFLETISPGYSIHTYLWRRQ
# Test: activation of GCase in a live cell PFB assay in HELA cells
# Assay type: cell-based
row,SMILES,EC50
1,"C[C@@H](Oc1cccnc1C(F)(F)F)[C@H]1CCCN(c2cncc(-c3nncs3)n2)C1 [Compound 45b, 2-(6-((S)-3-((R)-1-((2-(trifluoromethyl)pyridin-3-yl)oxy)ethyl)piperidin-1-yl)pyrazin-2-yl)-1,3,4-thiadiazole]",< 10 µM
2,"O=C(N1CCCC(COc2ccccc2)C1)C1(c2nnc(-c3ccccc3)o2)CCOCC1 (stereo not shown) [Compound 46, (3-(Phenoxymethyl)piperidin-1-yl)(4-(5-phenyl-1,3,4-oxadiazol-2-yl)tetrahydro-2H-pyran-4-yl)methanone]",10 to 50 µM
3,"C[C@@H]1C[C@H](COc2cccnc2C(F)(F)F)CN(c2cnc3cnn(CC(F)F)c3n2)C1 [Compound 47a, 1-(2,2-Difluoroethyl)-6-((3R,5S)-3-methyl-5-(((2-(trifluoromethyl)pyridin-3-yl)oxy)methyl)piperidin-1-yl)-1H-pyrazolo[3,4-b]pyrazine]",< 10 µM
4,"CC1CCN(c2cnc3cnn(CC(F)F)c3n2)CC1COc1cccnc1C(F)(F)F (stereo not shown) [Compound 48, 1-(2,2-Difluoroethyl)-6-(4-methyl-3-(((2-(trifluoromethyl)pyridin-3-yl)oxy)methyl)piperidin-1-yl)-1H-pyrazolo[3,4-b]pyrazine]",< 10 µM
5,"C[C@@H]1CCN(c2cnc3cnn(CC(F)F)c3n2)C[C@@H]1COc1cccnc1C(F)(F)F [Compound 48a, 1-(2,2-Difluoroethyl)-6-((3R,4R)-4-methyl-3-(((2-(trifluoromethyl)pyridin-3-yl)oxy)methyl)piperidin-1-yl)-1H-pyrazolo[3,4-b]pyrazine]",> 100 µM
6,"C[C@H]1CCN(c2cnc3cnn(CC(F)F)c3n2)C[C@H]1COc1cccnc1C(F)(F)F [Compound 48b, 1-(2,2-difluoroethyl)-6-((3S,4S)-4-methyl-3-(((2-(trifluoromethyl)pyridin-3-yl)oxy)methyl)piperidin-1-yl)-1H-pyrazolo[3,4-b]pyrazine]",> 100 µM
7,"C[C@H]1CCN(c2cnc3cnn(CC(F)F)c3n2)C[C@@H]1COc1cccnc1C(F)(F)F [Compound 48c, 1-(2,2-difluoroethyl)-6-((3R,4S)-4-methyl-3-(((2-(trifluoromethyl)pyridin-3-yl)oxy)methyl)piperidin-1-yl)-1H-pyrazolo[3,4-b]pyrazine]",10 to 50 µM
8,"C[C@@H]1CCN(c2cnc3cnn(CC(F)F)c3n2)C[C@H]1COc1cccnc1C(F)(F)F [Compound 48d, 1-(2,2-difluoroethyl)-6-((3S,4R)-4-methyl-3-(((2-(trifluoromethyl)pyridin-3-yl)oxy)methyl)piperidin-1-yl)-1H-pyrazolo[3,4-b]pyrazine]",10 to 50 µM
9,"Cc1ccccc1OCC1CCCN(C(=O)c2cnc3cc(-c4ccccc4)n(C)c3n2)C1 (stereo not shown) [Compound 49, (5-methyl-6-phenyl-5H-pyrrolo[2,3-b]pyrazin-3-yl)(3-((o-tolyloxy)methyl)piperidin-1-yl)methanone]",10 to 50 µM
10,"Cn1c(-c2ccccc2)cc2ncc(C(=O)N3CCCC(COc4cccnc4C(F)(F)F)C3)nc21 (stereo not shown) [Compound 50, (5-Methyl-6-phenyl-5H-pyrrolo[2,3-b]pyrazin-3-yl)(3-(((2-(trifluoromethyl)pyridin-3-yl)oxy)methyl)piperidin-1-yl)methanone]",10 to 50 µM
11,"O=C(c1nnc(C(F)(F)c2ccccc2)o1)N1CCCC(COc2ccccc2)C1 (stereo not shown) [Compound 51, (5-(Difluoro(phenyl)methyl)-1,3,4-oxadiazol-2-yl)(3-(phenoxymethyl)piperidin-1-yl)methanone]",> 100 µM
12,"Cc1ccccc1OCC1CCCN(C(=O)c2cnc3c(cc(-c4ccccc4)n3C)n2)C1 (stereo not shown) [Compound 52, (5-methyl-6-phenyl-5H-pyrrolo[2,3-b]pyrazin-2-yl)(3-((o-tolyloxy)methyl)piperidin-1-yl)methanone]",10 to 50 µM
13,"Cn1c(-c2ccc(F)cc2)cc2ncc(C(=O)N3CCCC(COc4cccnc4C(F)(F)F)C3)nc21 (stereo not shown) [Compound 58, (6-(4-fluorophenyl)-5-methyl-5H-pyrrolo[2,3-b]pyrazin-3-yl)(3-(((2-(trifluoromethyl)pyridin-3-yl)oxy)methyl)piperidin-1-yl)methanone]",10 to 50 µM
